# Tested on: HCV replicon-containing huh-7 cells (replicon 1b)
# Experiment: HCV Replicon Assay (luciferase readout)
# Type: cell-based
# Conditions: Hepatitis C virus; HCV replicon 1b in huh-7 cells, 48 h incubation, 1% DMSO, luciferase signal; read-out: EC50 (EC 50 on replicon 1b)
# Experimental: Compounds of formuala (I) are tested for the ability to inhibit viral replication of the Hepatitis C viruses by the following in vitro assays.
# DMEM (Life Technologies #41965-039) was supplemented with 10% FBS, 2 mM L-glutamine (Life Technologies #25030-024), penicillin (100 units/ml)/streptomycin (100 micrograms/ml) (Life Technologies #15140-114), 1× non-essential amino acids (Life Technologies #11140-035).
# Complete media was prepared by mixing FBS, DMEM media with Geneticin (G418). The compete media was preincubated at 37° C. in a CO2 incubator. Then, HCV replicon-containing huh-7 cells (V. Lohmann et. al. Science, 285, (1999)110-113) was taken out from 37° C. incubator. The residual medium was absorbed, and the cells were washed with PBS. After washing fluid was removed, 1 ml 0.25% trypsin/0.02% EDTA solution. The cells were washed by the above trypsin/EDTA solution to make sure that each cell was cleaned. After the trypsin/EDTA solution was absorbed, the mixture was incubated at 37° C. in a CO2 incubator for 3-5 minutes. Morphological changes were observed by inverted microscope, till the cells were detached from the wall of container completely.
# 3 ml of complete media was added to make the cells to suspend. The cells are counted with hematometer. Appropriate volumes of the complete media was added to adjust the cell density to 100,000/ml. Cells were plated with 100 μl of suspension at 10,000/well of 96 well plate. Plates were placed into 37° C. 5% CO2 incubator for 24 h.
# Preparation of Drug Solution:
# Drugs were diluted under aseptic conditions.
# Stock solutions may be prepared before the assay, which means that the test compounds are dissolved in 100% DMSO to afford a final concentration of 2 mM. Before the 96 well culture was completed, the stock solution was diluted with culter media to 100 fold of the final concentration (100× solution).
# 96-well plates were taken out from 37° C. CO2 incubator and morphological changes were observed by inverted microscope. In a ventilator, 1 μl of 100× drug solution was added to wells of 96 well plate until the final concentration of DMSO in the mixture is 1%. The plates were incubated at 37° C. in a CO2 environment for 48 h. 30 μl of Stead-G1® Luciferase Assay System (bought from Promega) was added to each well of 96 well plates and each plate is shaken in a plate shaker for 5 minutes to ensure cells cleavaged completely. The fluorescence signal was quantitated in a Perkin-Elmer plate reader (Envision) and integral time was setted to be 2 second. The following data were achieved after recording and analyzing the data.
row,SMILES,EC50
1,"C=C[C@@H]1C[C@]1(NC(=O)[C@@H]1C[C@@H]2CN1C(=O)[C@H](C(C)(C)C)NC(=O)[C@@H](NC(=O)OC(C)(C)C)COCCCc1cccc3c1CN(C3)C(=O)O2)C(=O)NS(=O)(=O)C1CC1 [Compound IIa-13, tert-butyl N-[(1R,17S,20S,23S)-20-tert-butyl-23-{[(1R,2S)-1-[(cyclopropanesulfonyl)carbamoyl]-2-ethenylcyclopropyl]carbamoyl}-3,18,21-trioxo-2,15-dioxa-4,19,22-triazatetracyclo[20.2.1.1^4,7.0^6,11]hexacosa-6,8,10-trien-17-yl]carbamate]",10 to 50 nM
2,"C=C[C@@H]1C[C@]1(NC(=O)[C@@H]1C[C@@H]2CN1C(=O)[C@H](C1CCCCC1)NC(=O)[C@@H](NC(=O)OC(C)(C)C)COCCCc1cccc3c1CN(C3)C(=O)O2)C(=O)NS(=O)(=O)C1CC1 [Compound IIa-17, tert-butyl N-[(1R,17S,20S,23S)-20-cyclohexyl-23-{[(1R,2S)-1-[(cyclopropanesulfonyl)carbamoyl]-2-ethenylcyclopropyl]carbamoyl}-3,18,21-trioxo-2,15-dioxa-4,19,22-triazatetracyclo[20.2.1.1^4,7.0^6,11]hexacosa-6,8,10-trien-17-yl]carbamate]",< 10 nM
3,"CC[C@@H]1C[C@]1(NC(=O)[C@@H]1C[C@@H]2CN1C(=O)[C@H](C(C)(C)C)NC(=O)[C@@H](NC(=O)OC(C)(C)C)COC/C=C/c1cccc3c1CN(C3)C(=O)O2)C(=O)NS(=O)(=O)C1CC1 [Compound IIa-15, tert-butyl N-[(1R,12E,17S,20S,23S)-20-tert-butyl-23-{[(1R,2R)-1-[(cyclopropanesulfonyl)carbamoyl]-2-ethylcyclopropyl]carbamoyl}-3,18,21-trioxo-2,15-dioxa-4,19,22-triazatetracyclo[20.2.1.1^4,7.0^6,11]hexacosa-6,8,10,12-tetraen-17-yl]carbamate]",< 10 nM
4,"CC[C@@H]1C[C@]1(NC(=O)[C@@H]1C[C@@H]2CN1C(=O)[C@H](C1CCCCC1)NC(=O)[C@@H](NC(=O)OC(C)(C)C)COC/C=C/c1cc3c(nccc3cc1OC)O2)C(=O)NS(=O)(=O)C1CC1 [Compound IIb-5, tert-butyl N-[(3R,5S,8S,11S,15E)-8-cyclohexyl-5-{[(1R,2R)-1-[(cyclopropanesulfonyl)carbamoyl]-2-ethylcyclopropyl]carbamoyl}-18-methoxy-7,10-dioxo-2,13-dioxa-6,9,23-triazatetracyclo[15.6.2.1^3,6.0^20,24]hexacosa-1(23),15,17(25),18,20(24),21-hexaen-11-yl]carbamate]",10 to 50 nM
5,"C=C[C@@H]1C[C@]1(NC(=O)[C@@H]1C[C@@H]2CN1C(=O)[C@H](C(C)(C)C)NC(=O)[C@@H](NC(=O)OC(C)(C)C)COC/C=C/c1cc3c(nccc3cc1OC)O2)C(=O)NS(=O)(=O)C1CC1 [Compound IIb-1, tert-butyl N-[(3R,5S,8S,11S,15E)-8-tert-butyl-5-{[(1R,2S)-1-[(cyclopropanesulfonyl)carbamoyl]-2-ethenylcyclopropyl]carbamoyl}-18-methoxy-7,10-dioxo-2,13-dioxa-6,9,23-triazatetracyclo[15.6.2.1^3,6.0^20,24]hexacosa-1(23),15,17(25),18,20(24),21-hexaen-11-yl]carbamate]",< 10 nM
6,"C=C[C@@H]1C[C@]1(NC(=O)[C@@H]1C[C@@H]2CN1C(=O)[C@H](C(C)(C)C)NC(=O)[C@H](NC(=O)OC(C)(C)C)COC/C=C/c1cccc3c1CN(C3)C(=O)O2)C(=O)NS(=O)(=O)C1CC1 [Compound IIa-3, tert-butyl N-[(1R,12E,17R,20S,23S)-20-tert-butyl-23-{[(1R,2S)-1-[(cyclopropanesulfonyl)carbamoyl]-2-ethenylcyclopropyl]carbamoyl}-3,18,21-trioxo-2,15-dioxa-4,19,22-triazatetracyclo[20.2.1.1^4,7.0^6,11]hexacosa-6,8,10,12-tetraen-17-yl]carbamate]",50 to 500 nM
7,"CC[C@@H]1C[C@]1(NC(=O)[C@@H]1C[C@@H]2CN1C(=O)[C@H](C1CCCCC1)NC(=O)[C@@H](NC(=O)OC(C)(C)C)COCCCc1cccc3c1CN(C3)C(=O)O2)C(=O)NS(=O)(=O)C1CC1 [Compound IIa-18, tert-butyl N-[(1R,17S,20S,23S)-20-cyclohexyl-23-{[(1R,2R)-1-[(cyclopropanesulfonyl)carbamoyl]-2-ethylcyclopropyl]carbamoyl}-3,18,21-trioxo-2,15-dioxa-4,19,22-triazatetracyclo[20.2.1.1^4,7.0^6,11]hexacosa-6,8,10-trien-17-yl]carbamate]",10 to 50 nM
8,"C=C[C@@H]1C[C@]1(NC(=O)[C@@H]1C[C@@H]2CN1C(=O)[C@H](C(C)(C)C)NC(=O)[C@@H](NC(=O)OCc1ccccc1)COC/C=C/c1cccc3c1CN(C3)C(=O)O2)C(=O)NS(=O)(=O)C1CC1 [Compound IIa-10, benzyl N-[(1R,12E,17S,20S,23S)-20-tert-butyl-23-{[(1R,2S)-1-[(cyclopropanesulfonyl)carbamoyl]-2-ethenylcyclopropyl]carbamoyl}-3,18,21-trioxo-2,15-dioxa-4,19,22-triazatetracyclo[20.2.1.1^4,7.0^6,11]hexacosa-6,8,10,12-tetraen-17-yl]carbamate]",< 10 nM
9,"C=C[C@@H]1C[C@]1(NC(=O)[C@@H]1C[C@@H]2CN1C(=O)[C@H](C(C)(C)C)NC(=O)[C@@H](N)COC/C=C/c1cccc3c1CN(C3)C(=O)O2)C(=O)NS(=O)(=O)C1CC1 [Compound IIa-2, (1R,12E,17S,20S,23S)-17-amino-20-tert-butyl-N-[(1R,2S)-1-[(cyclopropanesulfonyl)carbamoyl]-2-ethenylcyclopropyl]-3,18,21-trioxo-2,15-dioxa-4,19,22-triazatetracyclo[20.2.1.1^4,7.0^6,11]hexacosa-6,8,10,12-tetraene-23-carboxamide]",10 to 50 nM
10,"C=C[C@@H]1C[C@]1(NC(=O)[C@@H]1C[C@@H]2CN1C(=O)[C@H](C(C)(C)C)NC(=O)[C@@H](NS(C)(=O)=O)COC/C=C/c1cccc3c1CN(C3)C(=O)O2)C(=O)NS(=O)(=O)C1CC1 [Compound IIa-8, (1R,12E,17S,20S,23S)-20-tert-butyl-N-[(1R,2S)-1-[(cyclopropanesulfonyl)carbamoyl]-2-ethenylcyclopropyl]-17-methanesulfonamido-3,18,21-trioxo-2,15-dioxa-4,19,22-triazatetracyclo[20.2.1.1^4,7.0^6,11]hexacosa-6,8,10,12-tetraene-23-carboxamide]",10 to 50 nM
11,"C=C[C@@H]1C[C@]1(NC(=O)[C@@H]1C[C@@H]2CN1C(=O)[C@H](C(C)(C)C)NC(=O)[C@H](N)COC/C=C/c1cccc3c1CN(C3)C(=O)O2)C(=O)NS(=O)(=O)C1CC1 [Compound IIa-4, (1R,12E,17R,20S,23S)-17-amino-20-tert-butyl-N-[(1R,2S)-1-[(cyclopropanesulfonyl)carbamoyl]-2-ethenylcyclopropyl]-3,18,21-trioxo-2,15-dioxa-4,19,22-triazatetracyclo[20.2.1.1^4,7.0^6,11]hexacosa-6,8,10,12-tetraene-23-carboxamide]",500 to 20000 nM
12,"C=C[C@@H]1C[C@]1(NC(=O)[C@@H]1C[C@@H]2CN1C(=O)[C@H](C(C)(C)C)NC(=O)[C@@H](NC(=O)OC1CCCC1)COC/C=C/c1cccc3c1CN(C3)C(=O)O2)C(=O)NS(=O)(=O)C1CC1 [Compound IIa-11, cyclopentyl N-[(1R,12E,17S,20S,23S)-20-tert-butyl-23-{[(1R,2S)-1-[(cyclopropanesulfonyl)carbamoyl]-2-ethenylcyclopropyl]carbamoyl}-3,18,21-trioxo-2,15-dioxa-4,19,22-triazatetracyclo[20.2.1.1^4,7.0^6,11]hexacosa-6,8,10,12-tetraen-17-yl]carbamate]",< 10 nM
13,C=C[C@@H]1C[C@]1(NC(=O)[C@@H]1C[C@@H]2CN1C(=O)[C@H](C(C)(C)C)NC(=O)[C@@H](NC(=O)OC(C)(C)C)CCOC/C=C/c1cccc3c1CN(C3)C(=O)O2)C(=O)NS(=O)(=O)C1CC1 [Compound IIa-20],< 10 nM

# — patent US9321809B2, “Macrocyclic compounds for suppressing replication of hepatitis C virus” (Ginkgo Pharma Co., Ltd., priority 2012, dated 2016)
